# Results as given in US20240083872A1, “CYCLIC AMINE DERIVATIVES HAVING SEROTONIN RECEPTOR BINDING ACTIVITY” (Shionogi & Co., Ltd., priority 2020, published 2024).
# Where two headings read alike, the source gives them in different places.
# Columns and labels:
# [1] = biological target: human recombinant 5-HT2C receptor (Homo sapiens (Human), UniProt P28335); assay: 5-HT2C receptor binding inhibition test ([3H]-Mesulergine)
# Procedure: (§1) (Each Experimental Condition)
# Cell membrane: Jump-In HEK cell membrane (expressing human recombinant 5-HT2C receptor)
# (§2) Assay buffer: Tris-HCl 50 mmol/L (pH 7.4) containing NaCl 120 mmol/L, MgCl2.6H2O 1 mmol/L, KCl 5 mmol/L, 0.1% BSA, and CaCl2 2 mmol/L
# Radioactive ligand: [^3H]-Mesulergine around Kd value calculated by the following method
# (§3) Non-specific ligand: Serotonin HCl
# The Kd value was calculated when the lot of cell membrane was changed. In advance, 0.5 μL of a 1 mmol/L compound for non-specific binding calculation dissolved in DMSO or DMSO was dispensed into a microplate, and the cell membrane was diluted with an Assay buffer. The radioactive ligand solution was serially diluted and the count was confirmed with a liquid scintillator. Assay buffer containing diluted cell membrane was dispensed into a microplate at 50 μL/well. Then, the radioactive ligand solution was dispensed into a microplate at 50 μL/well, and the plate was sealed. It was allowed to stand at room temperature (25° C.) for 1.5 hours. During this period, 50 mmol/L Tris-HCl (pH 7.4) was dispensed into a GF/B UniFilter plate at 50 μL/well and allowed to stand at […] for 1 hour or longer. After that, filtration was performed with Cell harvester (PerkinElmer). The radioactive ligand solution was dispensed into an empty well of the GF/B UniFilter plate at 10 μL/well. After the GF/B UniFilter plate was dried at room temperature, MicroScinti 20 was dispensed into the GF/B UniFilter plate at 50 μL/well, and the plate was sealed. The GF/B UniFilter plate was allowed to stand overnight at room temperature. […] The Saturation curve was drawn from the measured value, and the Kd value was calculated from the slope of the Scatchard Plot.
# (§4) (Binding Test of the Compound According to the Present Invention)
# In advance, 0.5 μL of the compound solution dissolved in DMSO was dispensed into a microplate, and the cell membrane and the hot ligand were diluted with Assay buffer, respectively. Then, the Assay buffer containing the diluted cell membrane was dispensed into a microplate at 50 μL/well. Then, the radioactive ligand solution was dispensed into a microplate at 50 μL/well, and the plate was sealed. Then, it was allowed to stand at 37° C. for 2 hours. During this period, 50 mmol/L Tris-HCl (pH 7.4) was dispensed into a GF/B UniFilter plate at 50 μL/well and allowed to stand at 4° C. for 1 hour or longer. After that, filtration was performed with Cell harvester (PerkinElmer). After the GF/B UniFilter plate was dried at room temperature, MicroScinti 20 was dispensed into the GF/B UniFilter plate at 50 μL/well, and the plate was sealed. The GF/B UniFilter plate was allowed to stand overnight at room temperature. […] The non-specific binding was calculated from the radioactivity of [^3H]-Mesulergine in the presence of […] Serotonin HCl with the unlabeled ligand, and the total binding was calculated from the radioactivity of [^3H]-Mesulergine in the absence of the compound according to the present invention (Vehicle). Finally, the Ki value was calculated from the dose-response curve.
# (§5) (The binding activity of the compound according to the present invention was calculated from the following binding inhibition rate (%).)
# (§6) Inhibition rate (%)=[1−(c−a)/(b−a)]×100 • a; mean cpm of non-specific binding • b; mean cpm of total binding • c; cpm in the presence of the test compound
# [2] = biological target: human recombinant 5-HT2A receptor (Homo sapiens (Human), UniProt P28223); assay: 5-HT2A receptor binding inhibition test ([3H]-Ketanserin); details: Jump-In HEK cell membrane
# Procedure: Test Example 1: 5-HT2A Receptor Binding Inhibition Test
# as §1
# Cell membrane: Jump-In HEK cell membrane (expressing human recombinant 5-HT2A receptor)
# as §2
# Radioactive ligand: [^3H]-Ketanserin around Kd value calculated by the following method
# as §3
# The Kd value was calculated when the lot of cell membrane was changed. In advance, 0.5 μL of a 1 mmol/L compound for non-specific binding calculation dissolved in DMSO or DMSO was dispensed into a microplate, and the cell membrane was diluted with an Assay buffer. The radioactive ligand solution was serially diluted and the count was confirmed with a liquid scintillator. Assay buffer containing diluted cell membrane was dispensed into a microplate at 50 μL/well. Then, the radioactive ligand solution was dispensed into a microplate at 50 μL/well, and the plate was sealed. It was allowed to stand at room temperature (25° C.) for 1.5 hours. During this period, 50 mmol/L Tris-HCl (pH 7.4) was dispensed into a GF/B UniFilter plate at 50 μL/well and allowed to stand at 4° C. for 1 hour or longer. After that, filtration was performed with Cell harvester (PerkinElmer). The radioactive ligand solution was dispensed into an empty well of the GF/B UniFilter plate at 10 μL/well. After the GF/B UniFilter plate was dried at room temperature, MicroScinti 20 was dispensed into the GF/B UniFilter plate at 50 μL/well, and the plate was sealed. The GF/B UniFilter plate was allowed to stand overnight at room temperature. The radioactivity of [^3H]-Ketanserin bound to the 5-HT2A receptor was measured using Microbeta2 (PerkinElmer) at a measurement time of 1 min/well. The Saturation curve was drawn from the measured value, and the Kd value was calculated from the slope of the Scatchard Plot.
# as §4
# In advance, 0.5 μL of the compound solution dissolved in DMSO was dispensed into a microplate, and the cell membrane and the hot ligand were diluted with Assay buffer, respectively. Then, the Assay buffer containing the diluted cell membrane was dispensed into a microplate at 50 μL/well. Then, the radioactive ligand solution was dispensed into a microplate at 50 μL/well, and the plate was sealed. Then, it was allowed to stand at room temperature (25° C.) for 1.5 hours. During this period, 50 mmol/L Tris-HCl (pH 7.4) was dispensed into a GF/B UniFilter plate at 50 μL/well and allowed to stand at 4° C. for 1 hour or longer. After that, filtration was performed with Cell harvester (PerkinElmer). After the GF/B UniFilter plate was dried at room temperature, MicroScinti 20 was dispensed into the GF/B UniFilter plate at 50 μL/well, and the plate was sealed. The GF/B UniFilter plate was allowed to stand overnight at room temperature. The radioactivity of [^3H]-Ketanserin bound to the 5-HT2A receptor was measured using Microbeta2 (PerkinElmer) at a measurement time of 1 min/well. The non-specific binding was calculated from the radioactivity of [^3H]-Ketanserin in the presence of […] Serotonin HCl with the unlabeled ligand, and the total binding was calculated from the radioactivity of [^3H]-Ketanserin in the absence of the compound according to the present invention (Vehicle). Finally, the Ki value was calculated from the dose-response curve.
# as §5, §6
# [3] = Jump-In HEK cell membrane, [3H]-Mesulergine, read-out: h-5-HT2C Ki
# [4] = Jump-In HEK cell membrane, [3H]-Mesulergine, read-out: human serotonin 5-HT2C receptor binding inhibitory activity, Ki value
# [5] = read-out: human serotonin 5-HT2A receptor binding activity, Ki value
# human recombinant 5-HT2C receptor, sequence (P28335 33-458): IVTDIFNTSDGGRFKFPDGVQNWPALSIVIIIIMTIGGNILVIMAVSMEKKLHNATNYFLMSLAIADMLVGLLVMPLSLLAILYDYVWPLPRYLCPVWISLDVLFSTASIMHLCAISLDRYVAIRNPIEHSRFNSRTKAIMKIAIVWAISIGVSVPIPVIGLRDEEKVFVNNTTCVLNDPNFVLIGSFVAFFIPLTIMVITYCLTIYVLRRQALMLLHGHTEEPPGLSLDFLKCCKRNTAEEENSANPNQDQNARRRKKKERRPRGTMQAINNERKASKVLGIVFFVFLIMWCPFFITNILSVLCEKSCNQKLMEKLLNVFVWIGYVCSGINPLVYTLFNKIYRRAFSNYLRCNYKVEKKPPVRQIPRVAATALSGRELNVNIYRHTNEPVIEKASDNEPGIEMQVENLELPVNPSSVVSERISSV
# human recombinant 5-HT2A receptor, sequence (P28223 whole entry): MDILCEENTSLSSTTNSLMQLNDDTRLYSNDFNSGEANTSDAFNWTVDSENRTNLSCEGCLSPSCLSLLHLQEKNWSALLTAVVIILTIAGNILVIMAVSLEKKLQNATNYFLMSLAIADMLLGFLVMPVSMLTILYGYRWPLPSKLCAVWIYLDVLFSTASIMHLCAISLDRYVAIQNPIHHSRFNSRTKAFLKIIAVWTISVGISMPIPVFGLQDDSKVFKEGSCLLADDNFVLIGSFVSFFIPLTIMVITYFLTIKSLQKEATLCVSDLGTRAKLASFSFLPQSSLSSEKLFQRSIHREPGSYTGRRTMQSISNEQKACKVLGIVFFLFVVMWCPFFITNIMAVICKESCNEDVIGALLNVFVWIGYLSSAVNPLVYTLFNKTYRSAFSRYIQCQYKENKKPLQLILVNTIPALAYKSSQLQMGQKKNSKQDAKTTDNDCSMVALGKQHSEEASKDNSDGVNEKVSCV
SMILES,"Ki [1, 3] [nM]",Ki ([2]; read-out: h-5-HT2A Ki) [nM],Ki [1] [nM],"Ki [1, 4] [nM]","Ki [2, 5] [nM]"
CC(C)COc1ccc(CN(Cc2ccn(C)n2)C(=O)N[C@H]2CCN(C)C[C@@H]2C)cc1 [Compound I-064],< 10,< 10,–,–,–
CC(C)COc1ccc(CN(Cc2ccn(C)n2)C(=O)N[C@@H]2CCN(C)C[C@H]2C)cc1 [Compound I-065],< 10,< 10,–,–,–
CC(C)COc1ccc(CN(Cc2ccn(C)n2)C(=O)NC2(C)CCN(C)CC2)cc1 [Compound I-066],100 to 5000,10 to 100,–,–,–
CC(C)COc1ccc(CN(Cc2ccn(C)n2)C(=O)NC23CCN(CC2)CC3)cc1 [Compound I-068],–,10 to 100,100 to 5000,–,–
CCN1CCC(NC(=O)N(Cc2ccc(OCC(C)C)cc2)Cc2ccn(C)n2)CC1 [Compound I-069],10 to 100,< 10,–,–,–
CC(C)COc1ccc(CN(Cc2ccn(C)n2)C(=O)N[C@H]2C[C@H]3CC[C@@H](C2)N3C)cc1 [Compound I-070],–,10 to 100,10 to 100,–,–
CC(C)COc1ccc(CN(Cc2ccn(C)n2)C(=O)NC2CCN(CC3CCC3)CC2)cc1 [Compound I-076],10 to 100,< 10,–,–,–
Cc1nc(CN(Cc2ccc(OCC(C)C)cc2)C(=O)N[C@H]2CCN(C)C[C@H]2F)co1 [Compound I-078],< 10,< 10,–,–,–
CC(C)COc1ccc(CN(Cc2ccn(C)n2)C(=O)NC2CCNCC2)cc1 [Compound I-079],< 10,< 10,–,–,–
Cc1nc(CN(Cc2ccc(OCC(C)C)cc2)C(=O)N[C@H]2CCNC[C@H]2F)co1 [Compound I-080],< 10,< 10,–,–,–
Cc1ccc(CN(Cc2ccc(OCC(C)C)cc2)C(=O)OC2CCN(C)CC2)[nH]1 [Compound I-085],10 to 100,< 10,–,–,–
CCCCOc1ccc(CN(Cc2coc(C)n2)C(=O)NC2CCN(C)CC2)cc1F [Compound I-087],< 10,< 10,–,–,–
CCCCOc1ccc(CN(Cc2coc(C)n2)C(=O)N[C@H]2CCN(C)CC23CC3)cc1 [Compound I-089],< 10,< 10,–,–,–
CCCCOc1ccc(CN(Cc2coc(C)n2)C(=O)N[C@H]2CCN(C)CC23CC3)cc1F [Compound I-090],< 10,< 10,–,–,–
CCCCOc1ccc(CN(Cc2coc(C)n2)C(=O)N[C@H]2CCN(C)CC23CC3)c(F)c1 [Compound I-091],< 10,< 10,–,–,–
CC(C)COc1ccc(CN(Cc2ccn(C)c2)C(=O)OC2CCN(C)CC2)cc1 [Compound I-092],< 10,< 10,–,–,–

SMILES,"Ki [1, 3] [nM]",Ki ([2]; read-out: h-5-HT2A Ki) [nM],Ki [1] [nM],"Ki [1, 4] [nM]","Ki [2, 5] [nM]"
CC(C)COc1ccc(CN(Cc2ccc(F)cn2)C(=O)OC2CCN(C)CC2)cc1 [Compound I-093],10 to 100,< 10,–,–,–
COc1ccc(CN(Cc2ccn(C)c2)C(=O)OC2CCN(C)CC2)cc1 [Compound I-094],10 to 100,< 10,–,–,–
COc1ccc(CN(Cc2coc(C)n2)C(=O)OC2CCN(C)CC2)cc1 [Compound I-095],10 to 100,10 to 100,–,–,–
CCCCOc1ccc(CN(Cc2cnn(C)n2)C(=O)N[C@H]2CCN(C)CC23CC3)cc1F [Compound I-096],< 10,< 10,–,–,–
CCCCOc1ccc(CN(Cc2cnn(C)n2)C(=O)N[C@H]2CCN(C)CC23CC3)c(F)c1 [Compound I-097],< 10,< 10,–,–,–
CCCCOc1ccc(CN(Cc2cnn(C)n2)C(=O)N[C@H]2CCN(C)CC23CC3)cc1 [Compound I-098],< 10,< 10,–,–,–
CCCCOc1ccc(CN(Cc2cnn(C)n2)C(=O)NC2CCN(C)CC2)cc1F [Compound I-100],< 10,< 10,–,–,–
CC(C)COc1ccc(CN(Cc2cnn(C)n2)C(=O)NC2CCN(C)CC2)cc1 [Compound I-101],–,–,–,0.461,0.683
CC(C)COc1ccc(CN(Cc2cnn(C)n2)C(=O)N[C@H]2CCN(C)CC23CC3)cc1 [Compound I-103],–,–,–,0.634,1.89
Cc1nc(CN(Cc2ccc(CCC(F)(F)F)cc2F)C(=O)NC2CCN(C)CC2)co1 [Compound I-104],–,–,–,0.484,0.952
Cc1nc(CN(Cc2ccc(CCC(F)(F)F)cc2)C(=O)NC2CCN(C)CC2)co1 [Compound I-105],< 10,< 10,–,–,–
CCCCOc1ccc(CN(Cc2coc(C)n2)C(=O)CN2CCN(C)CC2)cc1 [Compound I-106],< 10,< 10,–,–,–
CCCc1ccc(CN(Cc2coc(C)n2)C(=O)NC2CCN(C)CC2)cc1F [Compound I-107],–,–,–,0.34,0.549
CCCc1ccc(CN(Cc2coc(C)n2)C(=O)NC2CCN(C)CC2)cc1 [Compound I-108],< 10,< 10,–,–,–
CCCCOc1ccc(CN(Cc2coc(C(F)F)n2)C(=O)NC2CCN(C)CC2)cc1 [Compound I-109],–,–,–,0.463,0.43
CCCCOc1ccc(CN(Cc2coc(C3CC3)n2)C(=O)NC2CCN(C)CC2)cc1 [Compound I-110],–,–,–,0.301,0.537
